These results are taken from ChEMBL document CHEMBL4184280, “Novel nicotinamide analog as inhibitor of nicotinamide N-methyltransferase” (Bioorg Med Chem Lett, 2018).

In general, IC50 refers to the concentration needed to halve the response being measured. For orientation: solubility means the concentration that dissolves in the medium under given conditions. Higher therefore signals a readily soluble substance. Usually Cmax stands for the maximum level reached in the sampled fluid or tissue. The AUC is concentration integrated over time. As usually defined, the half-life is the time in which the quantity being followed falls by half. Higher therefore signals slow decline. As usually defined, the bioavailability is the share of a dose that reaches the circulation, judged against a reference dose that is usually intravenous. Read a high bioavailability as much systemic uptake. The inhibition in vivo is the drop in the measured response relative to a control, in per cent.

≈ marks a conversion by molar mass, not a printed value.

The target in series [1] is T1, Nicotinamide N-methyltransferase (Homo sapiens, UniProt P40261).
T1 sequence (P40261 whole entry): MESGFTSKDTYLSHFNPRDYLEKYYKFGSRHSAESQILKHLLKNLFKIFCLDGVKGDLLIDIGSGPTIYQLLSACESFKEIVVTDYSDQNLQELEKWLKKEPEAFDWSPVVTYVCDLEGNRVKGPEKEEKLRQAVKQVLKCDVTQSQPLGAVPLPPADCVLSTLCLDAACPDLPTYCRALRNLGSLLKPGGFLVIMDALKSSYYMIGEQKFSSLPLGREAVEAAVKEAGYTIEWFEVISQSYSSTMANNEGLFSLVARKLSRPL

In series [2] the target is T2, Nicotinamide N-methyltransferase (Mus musculus, UniProt O55239).
T2 sequence (O55239 whole entry): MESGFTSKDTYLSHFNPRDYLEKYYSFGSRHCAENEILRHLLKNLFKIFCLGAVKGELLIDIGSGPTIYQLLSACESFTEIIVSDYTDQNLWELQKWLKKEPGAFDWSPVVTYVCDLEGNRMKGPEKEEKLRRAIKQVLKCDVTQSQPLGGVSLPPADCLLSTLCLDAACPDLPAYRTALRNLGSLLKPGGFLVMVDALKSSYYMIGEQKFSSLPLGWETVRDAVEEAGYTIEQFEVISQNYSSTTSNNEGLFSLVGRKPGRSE
The series can be described thus: Inhibition of mouse NNMT at 30 uM preincubated for 30 mins followed by nicotinamide substrate and SAM addition measured after 60 mins by fluorescence assay.

Series [3] concerns the target T2, Nicotinamide N-methyltransferase. The series can be described thus: Inhibition of NNMT in mouse 3T3L1 cells assessed as reduction in MNA production after 24 hrs by LC-MS/MS analysis. It counts as cell-based.
The nature of series [4]: Metabolic stability in human liver microsomes assessed as parent compound remaining after 30 mins. The format is ADME, microsome. Conditions: read-out: Stability.
The nature of series [5]: Metabolic stability in rat liver microsomes assessed as parent compound remaining after 30 mins. Conditions: read-out: Stability. It counts as ADME, microsome.
Series [6] is described as follows: Metabolic stability in mouse liver microsomes assessed as parent compound remaining after 30 mins. Conditions: read-out: Stability. It counts as ADME, microsome.
Series [7] can be described thus: Solubility of the compound. It counts as physicochemical.
The next series concerns the target Cytochrome P450 3A4 (Homo sapiens, UniProt P08684). The series is described as follows: Inhibition of CYP3A4 (unknown origin). It counts as ADME.
For a further series, the target named is Cytochrome P450 2D6 (Homo sapiens, UniProt P10635). The series is described as follows: Inhibition of CYP2D6 (unknown origin). It counts as ADME.
Sequence of Cytochrome P450 2D6 (P10635 whole entry): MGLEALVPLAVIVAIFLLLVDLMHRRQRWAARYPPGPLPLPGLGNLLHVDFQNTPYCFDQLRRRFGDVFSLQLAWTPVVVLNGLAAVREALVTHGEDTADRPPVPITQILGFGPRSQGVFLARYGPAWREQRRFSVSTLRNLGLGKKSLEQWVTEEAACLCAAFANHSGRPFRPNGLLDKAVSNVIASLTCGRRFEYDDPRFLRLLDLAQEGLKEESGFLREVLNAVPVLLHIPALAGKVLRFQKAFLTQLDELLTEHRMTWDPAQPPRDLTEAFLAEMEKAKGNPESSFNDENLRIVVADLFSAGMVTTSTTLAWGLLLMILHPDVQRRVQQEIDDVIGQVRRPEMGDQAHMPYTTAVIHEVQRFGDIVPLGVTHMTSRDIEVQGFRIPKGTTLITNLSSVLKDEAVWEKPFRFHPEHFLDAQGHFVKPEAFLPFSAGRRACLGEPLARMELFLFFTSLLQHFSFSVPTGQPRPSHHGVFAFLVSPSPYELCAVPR
A further series addresses Cytochrome P450 2C9 (Homo sapiens, UniProt P11712). The series can be described thus: Inhibition of CYP2C9 (unknown origin). The format is ADME.
The target in another series is Cytochrome P450 2C19 (Homo sapiens, UniProt P33261). The series can be described thus: Inhibition of CYP2C19 (unknown origin). The format is ADME.
Sequence of Cytochrome P450 2C19 (P33261 whole entry): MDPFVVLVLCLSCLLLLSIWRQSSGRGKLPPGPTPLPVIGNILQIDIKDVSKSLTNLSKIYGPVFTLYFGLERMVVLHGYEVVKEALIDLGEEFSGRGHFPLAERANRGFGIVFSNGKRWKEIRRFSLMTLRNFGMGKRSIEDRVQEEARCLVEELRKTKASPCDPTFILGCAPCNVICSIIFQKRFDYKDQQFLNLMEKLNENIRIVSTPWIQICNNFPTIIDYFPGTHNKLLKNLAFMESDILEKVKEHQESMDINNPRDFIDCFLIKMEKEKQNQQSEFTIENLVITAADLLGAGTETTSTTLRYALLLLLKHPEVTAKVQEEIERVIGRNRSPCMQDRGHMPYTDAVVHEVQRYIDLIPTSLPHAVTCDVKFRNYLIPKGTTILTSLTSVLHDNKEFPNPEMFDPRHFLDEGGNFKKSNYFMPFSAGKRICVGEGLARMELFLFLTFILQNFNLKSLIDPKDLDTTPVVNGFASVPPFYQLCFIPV
Series [8] is described as follows: Cmax in C57Bl6/N mouse at 10 mg/kg, po. The format is ADME, organism-based. Details: dose 10 mg/kg, route oral. Conditions: in vivo.
A short description of series [9]: Cmax in C57Bl6/N mouse at 1 mg/kg, iv. The format is ADME, organism-based. More on the design: dose 1 mg/kg, route intravenous. Conditions: in vivo.
A short description of series [10]: AUC in C57Bl6/N mouse at 10 mg/kg, po. Conditions: in vivo. It counts as ADME, organism-based.
The nature of series [11]: AUC in C57Bl6/N mouse at 1 mg/kg, iv. It counts as ADME, organism-based. Conditions: in vivo.
A short description of series [12]: Half life in C57Bl6/N mouse at 10 mg/kg, po. The format is ADME, organism-based. Conditions: in vivo.
Series [13] in a line: Half life in C57Bl6/N mouse at 1 mg/kg, iv. The conditions noted are these: in vivo. It counts as ADME, organism-based.
Series [14] is described as follows: Clearance in C57Bl6/N mouse at 10 mg/kg, po or 1 mg/kg, iv. It counts as ADME, organism-based. The conditions noted are these: in vivo.
Series [15] is described as follows: Volume of distribution in C57Bl6/N mouse at 10 mg/kg, po or 1 mg/kg, iv. The format is ADME, organism-based. Conditions: in vivo.
Series [16] in a line: Oral bioavailability in C57Bl6/N mouse at 10 mg/kg. Conditions: in vivo. It counts as ADME, organism-based.
The next series has as its system Mus musculus. The series can be described thus: In vivo inhibition of NNMT in C57Bl6/N mouse assessed as reduction in plasma MNA level at 50 mg/kg, po measured after 2 hrs by LC-MS/MS analysis. It counts as functional.

Sequence of Cytochrome P450 2C9 (P11712 whole entry): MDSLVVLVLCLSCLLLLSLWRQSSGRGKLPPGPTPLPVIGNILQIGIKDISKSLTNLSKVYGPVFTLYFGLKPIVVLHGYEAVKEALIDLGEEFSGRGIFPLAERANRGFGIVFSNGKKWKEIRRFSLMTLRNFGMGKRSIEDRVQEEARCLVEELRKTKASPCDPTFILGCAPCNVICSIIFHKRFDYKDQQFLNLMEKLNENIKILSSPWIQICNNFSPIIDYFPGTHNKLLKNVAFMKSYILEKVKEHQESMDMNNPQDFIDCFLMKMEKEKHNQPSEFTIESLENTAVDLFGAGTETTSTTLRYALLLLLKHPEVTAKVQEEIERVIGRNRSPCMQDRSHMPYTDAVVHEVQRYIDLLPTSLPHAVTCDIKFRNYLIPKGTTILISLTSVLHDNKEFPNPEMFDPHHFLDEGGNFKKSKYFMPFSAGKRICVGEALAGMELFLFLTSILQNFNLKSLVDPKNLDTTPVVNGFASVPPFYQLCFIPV
Sequence of Cytochrome P450 3A4 (P08684 whole entry): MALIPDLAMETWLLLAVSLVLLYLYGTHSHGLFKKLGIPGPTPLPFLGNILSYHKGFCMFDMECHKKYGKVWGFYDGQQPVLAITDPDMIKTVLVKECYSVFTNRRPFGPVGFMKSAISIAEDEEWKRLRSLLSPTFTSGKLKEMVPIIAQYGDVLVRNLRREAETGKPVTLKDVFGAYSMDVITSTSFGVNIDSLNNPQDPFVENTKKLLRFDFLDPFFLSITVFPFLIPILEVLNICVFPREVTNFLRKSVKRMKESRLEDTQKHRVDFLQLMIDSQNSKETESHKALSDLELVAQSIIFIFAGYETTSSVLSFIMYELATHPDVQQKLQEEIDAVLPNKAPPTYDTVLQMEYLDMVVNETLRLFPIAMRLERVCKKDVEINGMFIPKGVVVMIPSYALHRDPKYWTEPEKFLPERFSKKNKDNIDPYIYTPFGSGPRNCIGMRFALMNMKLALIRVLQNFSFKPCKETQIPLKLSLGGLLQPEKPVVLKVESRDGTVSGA

`CCOc1cc(C)ncc1C(N)=O` registered an IC50 in series [1] of more than 30 µM.

For the compound `CN(C)c1ccc(C(N)=O)cn1`, the IC50 in series [1] was more than 30 µM.

Consider `COc1ccc(C(N)=O)cc1`, for which, in series [1], the IC50 is more than 30 µM.

Consider `COc1ccc(C(N)=O)cn1`, for which the IC50 in series [1] is 2.36 to 2.52 µM.

`COc1ccc(C(N)=O)cc1F` showed a half-inhibitory concentration (IC50) in [1] of more than 30 µM.

On to `COc1ccc(-c2nnn[nH]2)cn1`, for which the IC50 in series [1] was more than 30 µM.

`CCc1ccc(C(N)=O)cn1` returned an IC50 in series [1] of more than 30 µM.

As for `COc1ccc(NC(C)=O)cn1`, the IC50 in [1] was more than 30 µM.

For `NC(=O)c1ccc(C(F)(F)F)nc1`, the IC50 in series [1] was more than 30 µM.

The compound `CCOc1nc(C)ccc1C(N)=O` registered an IC50 in series [1] of more than 30 µM.

In the case of `Cc1ccc(C(N)=O)cn1`, in series [1], the IC50 was more than 10 µM.

In [1], `COc1ccc(C(=N)N)cn1` gave an IC50 of more than 30 µM.

As to `CNc1ccc(C(N)=O)cn1`, the IC50 in series [2] was 4.5 µM; in series [3] it was 2.1 µM; on Cytochrome P450 3A4, more than 20 µM; against Cytochrome P450 2D6, more than 20 µM; against Cytochrome P450 2C9, more than 20 µM; at Cytochrome P450 2C19, more than 20 µM. The results for the remaining at 0.5 h in series [4], in [5] and in [6] were 85%, 97% and 69%, respectively. The solubility in [7] was determined as 200 µM (≈ 30.2 µg/mL). In addition, the figures for the Cmax in series [8] and in series [9] were 1430 ng/mL and 587 ng/mL, respectively. Besides, the AUC in series [10] was 1090 ng·h/mL; in series [11], 511 ng·h/mL. Moreover, the half-life in series [12] is 1.2 h; in series [13], 0.8 h. This compound came in with a clearance in [14] of 27.9 mL/min/kg. The compound further returned a Vd in series [15] of 1.85 L/kg. In series [16], this compound had a bioavailability of 19%. In the series with Mus musculus, the inhibition in vivo at 50 mg/kg was 80%.

As to `[2H]C([2H])([2H])Oc1ccc(C(N)=O)cn1`, the IC50 in [1] was 0.922 to 1.61 µM.

`Cn1cc(C(N)=O)ccc1=O`: the IC50 in series [1] is more than 30 µM.

With `CCNC(=O)c1ccc(OC)nc1`, the IC50 in series [1] was more than 30 µM.

`CSc1ccc(C(N)=O)cn1` gave an IC50 in [1] of more than 30 µM.

Regarding `COc1cnc(C(N)=O)cn1`, the IC50 in series [1] was more than 30 µM.

In series [1], `NC(=O)c1ccc(OC(F)F)nc1` registered an IC50 of more than 30 µM.
